Our source for the inhibition and residual activity values is ChEMBL document CHEMBL5696442, “Discovery of type II inhibitors of TGFβ-activated kinase 1 (TAK1) and mitogen-activated protein kinase kinase kinase kinase 2 (MAP4K2)” (J Med Chem, 2015).

For experiment [1], the target named is Citron Rho-interacting kinase (Homo sapiens) (UniProt O14578). The experiment in a line: Inhibition of CIT (unknown origin) at 1 uM by Ambit Kinomescan binding assay relative to control.
In experiment [2] the target is Mitogen-activated protein kinase kinase kinase 11 (Homo sapiens) (UniProt Q16584). The experiment in a line: Inhibition of MLK3 Lys2 labeling site in human A-375 cells at 0.05 uM by KiNativ Profiling analysis relative to control. The class given is cell-based.
For experiment [3], the target named is ALK tyrosine kinase receptor (Homo sapiens) (UniProt Q9UM73). Briefly: Inhibition of ALK (unknown origin) at 1 uM by Ambit Kinomescan binding assay relative to control.
Experiment [4] has as its target T1, Serine/threonine-protein kinase STK11 (Homo sapiens) (UniProt Q15831).
T1 sequence (whole entry): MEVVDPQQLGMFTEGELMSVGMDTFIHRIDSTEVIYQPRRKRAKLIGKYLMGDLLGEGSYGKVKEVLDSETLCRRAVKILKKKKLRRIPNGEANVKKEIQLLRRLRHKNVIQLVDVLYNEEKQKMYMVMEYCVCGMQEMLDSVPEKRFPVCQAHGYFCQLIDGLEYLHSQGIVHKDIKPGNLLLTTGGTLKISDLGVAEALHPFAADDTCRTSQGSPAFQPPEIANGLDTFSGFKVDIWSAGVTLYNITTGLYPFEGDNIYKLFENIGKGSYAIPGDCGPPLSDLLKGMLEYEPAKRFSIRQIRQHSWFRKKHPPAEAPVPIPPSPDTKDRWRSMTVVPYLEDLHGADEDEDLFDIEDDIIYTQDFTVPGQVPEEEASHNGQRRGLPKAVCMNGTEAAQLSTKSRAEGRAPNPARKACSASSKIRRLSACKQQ
Briefly: Inhibition of LKB1 Lys2 labeling site in human A-375 cells at 0.5 uM by KiNativ Profiling analysis relative to control. The class given is cell-based.

Experiment [5] has as its target Insulin receptor (Homo sapiens) (UniProt P06213). The experiment in a line: Inhibition of INSR (unknown origin) at 1 uM by Ambit Kinomescan binding assay relative to control; values are per cent of control.
The target of experiment [6] is Serine/threonine-protein kinase Nek4 (Homo sapiens) (UniProt P51957). The experiment in a line: Inhibition of NEK4 Lys2 labeling site in human A-375 cells at 0.5 uM by KiNativ Profiling analysis relative to control. The class given is cell-based.
The nature of experiment [7]: Inhibition of KHS1 Lys2 labeling site in human A-375 cells at 0.05 uM by KiNativ Profiling analysis relative to control. The conditions noted are these: condition cancer.
Experiment [8] addresses T2, Interleukin-1 receptor-associated kinase 4 (Homo sapiens) (UniProt Q9NWZ3).
T2 sequence (whole entry): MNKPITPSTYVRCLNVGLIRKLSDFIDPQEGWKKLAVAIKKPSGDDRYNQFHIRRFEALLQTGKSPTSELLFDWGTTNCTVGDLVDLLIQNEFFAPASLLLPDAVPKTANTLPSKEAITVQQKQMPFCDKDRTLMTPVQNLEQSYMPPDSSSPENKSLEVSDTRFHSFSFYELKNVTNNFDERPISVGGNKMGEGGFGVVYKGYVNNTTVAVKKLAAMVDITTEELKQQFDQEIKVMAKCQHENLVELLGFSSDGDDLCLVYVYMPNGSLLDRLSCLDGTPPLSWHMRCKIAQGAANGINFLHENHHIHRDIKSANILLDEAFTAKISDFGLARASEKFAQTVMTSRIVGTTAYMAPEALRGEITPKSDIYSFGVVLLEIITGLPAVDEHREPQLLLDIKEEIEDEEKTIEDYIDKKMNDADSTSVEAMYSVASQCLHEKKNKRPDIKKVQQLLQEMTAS
The experiment in a line: Inhibition of IRAK4 K2 labeling site in human Huh-7 cells at 1 uM by KiNativ Profiling analysis relative to control. The class given is cell-based.

For experiment [9], the target named is Focal adhesion kinase 1 (Homo sapiens) (UniProt Q05397). The experiment in a line: Inhibition of FAK (unknown origin) at 10 uM by Ambit Kinomescan binding assay relative to control.
The target in experiment [10] is c-Jun N-terminal kinase, JNK (Homo sapiens) (UniProt P45983+P53779+P45984). The experiment in a line: Inhibition of JNK1/2/3 K2 labeling site in human Huh-7 cells at 1 uM by KiNativ Profiling analysis relative to control. The class given is cell-based.
Experiment [11] concerns the target Serine/threonine-protein kinase B-raf (Homo sapiens, UniProt P15056). The experiment in a line: Inhibition of BRAF K2 labeling site in human Huh-7 cells at 10 uM by KiNativ Profiling analysis relative to control. The class given is cell-based.
For experiment [12], the target named is 3-phosphoinositide-dependent protein kinase 1 (Homo sapiens) (UniProt O15530). Briefly: Inhibition of PDPK1 (unknown origin) at 10 uM by Ambit Kinomescan binding assay.
The target of experiment [13] is Serine/threonine-protein kinase 25 (Homo sapiens) (UniProt O00506). Briefly: Inhibition of YSK1 ATP labeling site in human Huh-7 cells at 10 uM by KiNativ Profiling analysis relative to control. The class given is cell-based.
Experiment [14] deals with Mitogen-activated protein kinase 7 (Homo sapiens) (UniProt Q13164). Briefly: Inhibition of Erk5 Lys2 labeling site in human Huh-7 cell lysate at 1 uM by KiNativ Profiling analysis relative to control. The class given is subcellular.
The target in experiment [15] is DNA-PK/Ku70/Ku85 (Homo sapiens) (UniProt P78527+P12956+P13010). Briefly: Inhibition of DNAPK ATP labeling site harbouring KGGSWIQEINVAEK in human Huh-7 cells at 1 uM by KiNativ Profiling analysis relative to control. The class given is cell-based.
Experiment [16] has as its target Serine/threonine-protein kinase 4 (Homo sapiens) (UniProt Q13043). Briefly: Inhibition of MST1 Lys1 labeling site harbouring ETGQIVAIKQVPVESDLQEIIK in human Huh-7 cell lysate at 1 uM by KiNativ Profiling analysis relative to control.
Experiment [17] addresses T3, Phosphatidylinositol 5-phosphate 4-kinase type-2 alpha (Homo sapiens) (UniProt P48426).
T3 sequence (whole entry): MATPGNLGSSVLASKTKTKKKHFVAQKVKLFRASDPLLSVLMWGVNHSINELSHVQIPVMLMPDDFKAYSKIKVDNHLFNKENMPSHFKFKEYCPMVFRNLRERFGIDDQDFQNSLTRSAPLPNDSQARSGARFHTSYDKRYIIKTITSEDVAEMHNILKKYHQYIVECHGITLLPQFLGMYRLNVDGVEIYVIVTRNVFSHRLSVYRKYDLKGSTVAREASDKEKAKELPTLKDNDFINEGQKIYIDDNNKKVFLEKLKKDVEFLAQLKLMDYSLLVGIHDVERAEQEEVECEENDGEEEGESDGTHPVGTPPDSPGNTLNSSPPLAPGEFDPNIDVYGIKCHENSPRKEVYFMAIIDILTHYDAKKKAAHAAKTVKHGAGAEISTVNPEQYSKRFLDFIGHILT
The experiment in a line: Inhibition of PIP4K2A ATP labeling site harbouring AKELPTLKDNDFINEGQK in human Huh-7 cells at 1 uM by KiNativ Profiling analysis relative to control. The class given is cell-based.

Experiment [18] concerns the target Calcium/calmodulin-dependent protein kinase type II subunit alpha (Homo sapiens) (UniProt Q9UQM7). The experiment in a line: Inhibition of CaMK2a Lys2 labeling site in human Huh-7 cell lysate at 1 uM by KiNativ Profiling analysis relative to control. The class given is subcellular.

The structures appear in SMILES notation. Calls of active or inactive are those of the source. No cut-off for these calls is given here.

Sequence of Serine/threonine-protein kinase 25 (Homo sapiens) (O00506 whole entry, looked up): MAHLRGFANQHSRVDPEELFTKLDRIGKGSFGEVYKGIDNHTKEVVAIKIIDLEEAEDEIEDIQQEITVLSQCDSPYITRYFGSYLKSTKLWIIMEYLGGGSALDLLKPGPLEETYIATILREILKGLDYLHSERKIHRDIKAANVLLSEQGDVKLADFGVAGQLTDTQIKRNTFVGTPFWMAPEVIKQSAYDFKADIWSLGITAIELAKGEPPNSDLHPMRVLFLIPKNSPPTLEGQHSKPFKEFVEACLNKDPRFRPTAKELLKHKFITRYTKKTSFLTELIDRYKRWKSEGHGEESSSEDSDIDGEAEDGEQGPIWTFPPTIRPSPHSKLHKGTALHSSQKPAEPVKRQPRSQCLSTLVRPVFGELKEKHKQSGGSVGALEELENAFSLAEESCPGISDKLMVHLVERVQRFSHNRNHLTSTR
Sequence of Serine/threonine-protein kinase Nek4 (Homo sapiens) (P51957 whole entry, looked up): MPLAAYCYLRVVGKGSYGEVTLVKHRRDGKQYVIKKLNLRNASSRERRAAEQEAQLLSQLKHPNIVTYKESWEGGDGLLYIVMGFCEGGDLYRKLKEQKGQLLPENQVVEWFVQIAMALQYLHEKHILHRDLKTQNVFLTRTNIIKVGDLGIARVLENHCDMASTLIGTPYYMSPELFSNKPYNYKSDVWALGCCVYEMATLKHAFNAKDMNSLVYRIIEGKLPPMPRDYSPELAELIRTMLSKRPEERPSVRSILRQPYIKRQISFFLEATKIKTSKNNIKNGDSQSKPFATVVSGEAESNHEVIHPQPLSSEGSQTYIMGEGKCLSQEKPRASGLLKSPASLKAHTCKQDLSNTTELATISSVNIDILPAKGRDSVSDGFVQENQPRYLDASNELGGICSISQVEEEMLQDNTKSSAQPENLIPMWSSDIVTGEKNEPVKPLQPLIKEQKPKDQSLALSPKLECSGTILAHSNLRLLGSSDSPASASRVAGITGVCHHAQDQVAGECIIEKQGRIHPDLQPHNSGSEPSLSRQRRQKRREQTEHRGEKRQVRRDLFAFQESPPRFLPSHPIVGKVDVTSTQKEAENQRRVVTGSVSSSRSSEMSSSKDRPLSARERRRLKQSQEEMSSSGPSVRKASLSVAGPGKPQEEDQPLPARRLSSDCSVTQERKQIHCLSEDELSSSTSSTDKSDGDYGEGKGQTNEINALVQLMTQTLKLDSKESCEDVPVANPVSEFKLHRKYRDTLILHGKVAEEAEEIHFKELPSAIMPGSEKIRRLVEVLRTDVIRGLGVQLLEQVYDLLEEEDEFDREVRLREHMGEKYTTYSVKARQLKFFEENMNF
Sequence of Calcium/calmodulin-dependent protein kinase type II subunit alpha (Homo sapiens) (Q9UQM7 whole entry): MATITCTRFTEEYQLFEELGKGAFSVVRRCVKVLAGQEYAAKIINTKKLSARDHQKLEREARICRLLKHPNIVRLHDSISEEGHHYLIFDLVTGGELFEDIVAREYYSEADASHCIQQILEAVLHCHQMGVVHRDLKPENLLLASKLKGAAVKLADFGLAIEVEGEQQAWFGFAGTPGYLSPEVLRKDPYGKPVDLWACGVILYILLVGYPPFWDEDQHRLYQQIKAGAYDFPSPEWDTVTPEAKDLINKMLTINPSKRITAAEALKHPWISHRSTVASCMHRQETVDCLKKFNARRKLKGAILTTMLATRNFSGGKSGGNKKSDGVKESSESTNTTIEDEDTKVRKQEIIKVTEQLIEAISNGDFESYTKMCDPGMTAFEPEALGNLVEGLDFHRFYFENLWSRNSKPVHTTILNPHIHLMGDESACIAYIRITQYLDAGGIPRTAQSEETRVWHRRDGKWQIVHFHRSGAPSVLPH
Sequence of Serine/threonine-protein kinase 4 (Homo sapiens) (Q13043 whole entry, looked up): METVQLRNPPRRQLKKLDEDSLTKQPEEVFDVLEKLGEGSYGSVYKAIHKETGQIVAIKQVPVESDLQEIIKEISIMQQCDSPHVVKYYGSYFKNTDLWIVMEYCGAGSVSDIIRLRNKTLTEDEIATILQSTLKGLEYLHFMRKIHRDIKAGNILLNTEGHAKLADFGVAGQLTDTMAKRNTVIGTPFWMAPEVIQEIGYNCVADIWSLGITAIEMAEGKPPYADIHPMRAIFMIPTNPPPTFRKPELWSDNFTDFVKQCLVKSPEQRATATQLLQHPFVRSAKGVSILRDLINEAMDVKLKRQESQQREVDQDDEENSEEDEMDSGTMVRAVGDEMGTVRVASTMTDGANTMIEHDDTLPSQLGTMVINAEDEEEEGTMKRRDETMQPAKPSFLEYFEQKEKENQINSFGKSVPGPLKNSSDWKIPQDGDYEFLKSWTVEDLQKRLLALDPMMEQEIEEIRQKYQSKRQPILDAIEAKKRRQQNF
Sequence of Focal adhesion kinase 1 (Homo sapiens) (Q05397 2-1052 limits assumed): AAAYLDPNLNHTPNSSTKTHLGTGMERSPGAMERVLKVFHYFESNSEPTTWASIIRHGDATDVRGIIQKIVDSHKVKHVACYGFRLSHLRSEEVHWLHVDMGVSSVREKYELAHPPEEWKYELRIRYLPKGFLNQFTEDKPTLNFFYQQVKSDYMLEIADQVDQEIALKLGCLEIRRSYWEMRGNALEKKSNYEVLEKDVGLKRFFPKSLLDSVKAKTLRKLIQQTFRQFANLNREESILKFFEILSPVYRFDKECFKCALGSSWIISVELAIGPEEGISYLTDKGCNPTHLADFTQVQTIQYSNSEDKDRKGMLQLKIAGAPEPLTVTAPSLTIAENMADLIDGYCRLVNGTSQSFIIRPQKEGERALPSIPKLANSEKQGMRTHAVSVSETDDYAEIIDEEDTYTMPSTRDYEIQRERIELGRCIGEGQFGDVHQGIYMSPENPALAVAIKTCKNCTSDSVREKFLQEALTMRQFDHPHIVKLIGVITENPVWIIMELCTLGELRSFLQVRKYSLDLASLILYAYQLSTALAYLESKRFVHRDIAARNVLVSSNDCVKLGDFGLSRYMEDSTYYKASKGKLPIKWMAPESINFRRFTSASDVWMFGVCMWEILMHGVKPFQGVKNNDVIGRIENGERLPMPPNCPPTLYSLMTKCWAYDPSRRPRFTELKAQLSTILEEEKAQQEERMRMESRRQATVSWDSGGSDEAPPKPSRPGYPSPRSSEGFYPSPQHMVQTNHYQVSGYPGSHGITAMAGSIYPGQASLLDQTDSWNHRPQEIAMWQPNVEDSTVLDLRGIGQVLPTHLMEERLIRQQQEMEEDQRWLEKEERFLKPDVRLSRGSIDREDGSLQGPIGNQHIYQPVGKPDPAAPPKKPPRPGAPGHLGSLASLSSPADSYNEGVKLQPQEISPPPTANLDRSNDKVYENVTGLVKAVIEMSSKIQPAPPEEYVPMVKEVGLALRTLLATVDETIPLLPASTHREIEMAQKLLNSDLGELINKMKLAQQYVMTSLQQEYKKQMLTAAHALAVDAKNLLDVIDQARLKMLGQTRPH
Sequence of Mitogen-activated protein kinase kinase kinase 11 (Homo sapiens) (Q16584 whole entry, looked up): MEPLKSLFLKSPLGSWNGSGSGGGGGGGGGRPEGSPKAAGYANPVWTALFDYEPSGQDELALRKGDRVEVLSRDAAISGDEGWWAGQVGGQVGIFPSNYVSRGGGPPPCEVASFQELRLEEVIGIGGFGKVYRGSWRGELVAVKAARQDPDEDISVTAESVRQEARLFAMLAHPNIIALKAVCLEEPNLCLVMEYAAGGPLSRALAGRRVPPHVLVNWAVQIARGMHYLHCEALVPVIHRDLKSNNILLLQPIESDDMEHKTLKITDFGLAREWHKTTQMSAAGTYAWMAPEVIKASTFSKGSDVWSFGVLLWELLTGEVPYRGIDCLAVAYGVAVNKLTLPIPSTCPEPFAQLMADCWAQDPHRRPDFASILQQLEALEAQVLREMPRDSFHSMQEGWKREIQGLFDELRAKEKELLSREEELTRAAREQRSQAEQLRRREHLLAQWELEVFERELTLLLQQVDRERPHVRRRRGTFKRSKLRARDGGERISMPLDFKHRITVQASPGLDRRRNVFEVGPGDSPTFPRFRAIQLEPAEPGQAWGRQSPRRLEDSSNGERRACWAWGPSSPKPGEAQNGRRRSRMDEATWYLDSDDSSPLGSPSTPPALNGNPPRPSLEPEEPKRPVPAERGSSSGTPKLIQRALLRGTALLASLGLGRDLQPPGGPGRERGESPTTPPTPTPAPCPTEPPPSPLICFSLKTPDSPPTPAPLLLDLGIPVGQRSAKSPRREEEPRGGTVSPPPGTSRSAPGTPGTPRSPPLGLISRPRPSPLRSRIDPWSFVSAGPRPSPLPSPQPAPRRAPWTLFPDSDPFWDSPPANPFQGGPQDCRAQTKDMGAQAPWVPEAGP
Sequence of Mitogen-activated protein kinase 7 (Homo sapiens) (Q13164 2-816 limits assumed): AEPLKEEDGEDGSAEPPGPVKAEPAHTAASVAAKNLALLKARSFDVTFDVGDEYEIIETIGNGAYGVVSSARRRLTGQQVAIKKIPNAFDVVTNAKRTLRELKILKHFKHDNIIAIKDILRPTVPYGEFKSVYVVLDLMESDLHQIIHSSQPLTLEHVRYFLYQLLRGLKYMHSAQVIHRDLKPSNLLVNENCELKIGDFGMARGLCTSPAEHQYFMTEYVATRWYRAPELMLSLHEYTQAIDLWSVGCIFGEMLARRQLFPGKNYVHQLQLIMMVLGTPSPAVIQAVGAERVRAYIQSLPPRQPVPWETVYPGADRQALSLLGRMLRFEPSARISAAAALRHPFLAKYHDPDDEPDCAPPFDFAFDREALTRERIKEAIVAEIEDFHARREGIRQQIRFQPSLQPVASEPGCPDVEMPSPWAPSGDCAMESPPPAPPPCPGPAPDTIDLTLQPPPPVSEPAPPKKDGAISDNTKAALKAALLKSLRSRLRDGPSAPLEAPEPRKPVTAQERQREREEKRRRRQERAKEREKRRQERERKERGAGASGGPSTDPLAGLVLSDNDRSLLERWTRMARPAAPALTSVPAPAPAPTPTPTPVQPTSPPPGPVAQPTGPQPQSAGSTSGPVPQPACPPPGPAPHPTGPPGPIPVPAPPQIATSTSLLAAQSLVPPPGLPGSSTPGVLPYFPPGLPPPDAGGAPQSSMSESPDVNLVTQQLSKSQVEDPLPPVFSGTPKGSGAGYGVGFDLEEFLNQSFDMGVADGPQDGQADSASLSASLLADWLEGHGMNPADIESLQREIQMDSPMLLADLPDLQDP

With `CCN1CCN(Cc2ccc(NC(=O)c3ccc(C)c(/C=C/c4cnc5[nH]ccc5c4OC)c3)cc2C(F)(F)F)CC1`, the inhibition (as a rule, the change of the read-out against control, counted positive when it falls) came out at 4.6% in experiment [1]; 11.4% in [2]; 80% in experiment [3]; 32.2% in experiment [4]; 8.6% in experiment [6]. The residual activity (as a rule, the signal under treatment as a percentage of the control signal) in experiment [5] is 78%.
In the case of `CCN1CCN(Cc2ccc(NC(=O)c3ccc(C)c(Oc4ccnc5[nH]ccc45)c3)cc2C(F)(F)F)CC1`, the inhibition at 0.05 µM in [7] was -15.4%. Besides, the inhibition in experiment [8] was -9.1%; in [9], 23%; in experiment [10] it was 29.4%; in experiment [11], 5.2%; in [13], 25.3%. In addition, in [12], the inhibition entry is “inactive”.
With `CNc1cc(Oc2cc(C(=O)Nc3cc(N4CCN(C)CC4)cc(C(F)(F)F)c3)ccc2C)ncn1`, the inhibition is -6.5% in experiment [14]; 71.1% in experiment [15]; -1.3% in [16]; 13.4% in experiment [17]; 0.7% in [18].
